The target of data set [1] is Epidermal growth factor receptor (Homo sapiens, UniProt P00533, C797S/EX19DEL/T790M). Description: Inhibition of EGFR del19/T790M/C797S triple mutant (unknown origin) in presence of ATP by FRET assay.
Data set [2] addresses Epidermal growth factor receptor (Homo sapiens, UniProt P00533, C797S/L858R/T790M). Description: Inhibition of EGFR L858R/T790M/C797S triple mutant (unknown origin).
In another data set the test system is BaF3. Description: Antiproliferative activity against mouse BaF3 cells harboring EGFR L858R/T790M/C797S triple mutant assessed as inhibition of cell growth incubated for 72 hrs by CellTiter-Glo luminescent assay. The data set is classed as functional, cell-based. The note with it: BaF3, 72 h. In general terms: In ATP-based viability assays light output follows the ATP content of the culture.

For data set [3], the target named is Epidermal growth factor receptor (Homo sapiens, UniProt P00533). The experiment in a line: Inhibition of wild type EGFR (unknown origin).
Data set [4] is described as follows: Antiproliferative activity against human NCI-H1975 cells harboring EGFR L858R/T790M mutant assessed as cell growth inhibition incubated for 72 hrs by CellTiter Glo assay. It is filed as functional, cell-based. The note with it: NCI-H1975, 72 h.
Data set [5] concerns the target Tyrosine-protein kinase BTK (Homo sapiens, UniProt Q06187). Description: Inhibition of wild type BTK (unknown origin) using TK as substrate incubated for 1 hr by HTRF assay. Background: TR-FRET usually uses a lanthanide donor and a delayed reading to cut background.
Data set [6] can be described thus: Antiproliferative activity against human NCI-H1975 cells harboring EGFR L858R/T790M/C797S mutant assessed as reduction in cell growth incubated for 72 hrs by SRB assay. The data set is classed as functional, cell-based. As to conditions: NCI-H1975, 72 h. (In general: The SRB assay estimates cell density from bound dye.)
Data set [7] in a line: Antiproliferative activity against mouse Ba/F3 EGFR-T790M/C797S/L858R cells. The data set is classed as functional, cell-based.
For the next data set, the system named is A549. The experiment in a line: Antiproliferative activity against human A549 cells harboring wild type EGFR assessed as inhibition of cell proliferation incubated for 72 hrs by CCK8 assay. It is filed as functional, cell-based. As to conditions: A549, 72 h.
The nature of data set [8]: Clearance in cynomolgus monkey at 1 mg/kg, iv by LC-MS/MS analysis. It is filed as ADME, organism-based, Macaca fascicularis. As to conditions: in vivo.
Data set [9] can be described thus: Intrinsic clearance in human liver microsomes. The data set is classed as ADME, Microsome.

pIC50: −log10 of the molar value. Bounds are passed on as bounds.

Chain of Epidermal growth factor receptor (Homo sapiens, UniProt P00533, C797S/L858R/T790M) (P00533 25-1210 T790M/C797S/L858R limits assumed): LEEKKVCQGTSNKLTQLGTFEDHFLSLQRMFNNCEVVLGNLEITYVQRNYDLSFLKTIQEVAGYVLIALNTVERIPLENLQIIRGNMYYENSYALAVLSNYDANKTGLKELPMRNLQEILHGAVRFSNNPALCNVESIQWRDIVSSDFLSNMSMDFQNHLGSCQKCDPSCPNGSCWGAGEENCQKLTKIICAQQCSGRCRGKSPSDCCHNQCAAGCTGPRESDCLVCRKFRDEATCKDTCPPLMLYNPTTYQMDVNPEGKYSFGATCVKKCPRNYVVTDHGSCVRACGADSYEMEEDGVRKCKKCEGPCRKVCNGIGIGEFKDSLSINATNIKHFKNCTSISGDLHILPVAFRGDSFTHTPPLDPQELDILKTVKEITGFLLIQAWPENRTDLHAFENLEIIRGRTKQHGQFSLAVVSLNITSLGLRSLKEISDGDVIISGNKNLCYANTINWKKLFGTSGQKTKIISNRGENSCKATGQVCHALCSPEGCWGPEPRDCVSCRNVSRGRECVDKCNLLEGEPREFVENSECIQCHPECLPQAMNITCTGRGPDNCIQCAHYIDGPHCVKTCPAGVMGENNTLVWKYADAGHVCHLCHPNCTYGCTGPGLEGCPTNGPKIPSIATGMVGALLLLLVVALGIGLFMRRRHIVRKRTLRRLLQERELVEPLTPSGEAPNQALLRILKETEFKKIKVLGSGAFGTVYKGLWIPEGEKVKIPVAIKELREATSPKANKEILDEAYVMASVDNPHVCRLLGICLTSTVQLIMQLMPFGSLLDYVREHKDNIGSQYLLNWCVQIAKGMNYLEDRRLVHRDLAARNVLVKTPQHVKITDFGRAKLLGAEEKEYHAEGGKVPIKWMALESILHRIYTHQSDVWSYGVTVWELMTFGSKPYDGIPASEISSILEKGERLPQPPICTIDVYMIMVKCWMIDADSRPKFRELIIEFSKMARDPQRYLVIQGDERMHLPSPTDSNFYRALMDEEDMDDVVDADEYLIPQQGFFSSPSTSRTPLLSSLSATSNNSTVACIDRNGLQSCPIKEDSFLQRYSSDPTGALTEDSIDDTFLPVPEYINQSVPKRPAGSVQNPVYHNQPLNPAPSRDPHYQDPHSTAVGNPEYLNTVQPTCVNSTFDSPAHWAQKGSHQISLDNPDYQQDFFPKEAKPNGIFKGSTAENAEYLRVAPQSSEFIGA
Chain of Epidermal growth factor receptor (Homo sapiens, UniProt P00533) (P00533 whole entry): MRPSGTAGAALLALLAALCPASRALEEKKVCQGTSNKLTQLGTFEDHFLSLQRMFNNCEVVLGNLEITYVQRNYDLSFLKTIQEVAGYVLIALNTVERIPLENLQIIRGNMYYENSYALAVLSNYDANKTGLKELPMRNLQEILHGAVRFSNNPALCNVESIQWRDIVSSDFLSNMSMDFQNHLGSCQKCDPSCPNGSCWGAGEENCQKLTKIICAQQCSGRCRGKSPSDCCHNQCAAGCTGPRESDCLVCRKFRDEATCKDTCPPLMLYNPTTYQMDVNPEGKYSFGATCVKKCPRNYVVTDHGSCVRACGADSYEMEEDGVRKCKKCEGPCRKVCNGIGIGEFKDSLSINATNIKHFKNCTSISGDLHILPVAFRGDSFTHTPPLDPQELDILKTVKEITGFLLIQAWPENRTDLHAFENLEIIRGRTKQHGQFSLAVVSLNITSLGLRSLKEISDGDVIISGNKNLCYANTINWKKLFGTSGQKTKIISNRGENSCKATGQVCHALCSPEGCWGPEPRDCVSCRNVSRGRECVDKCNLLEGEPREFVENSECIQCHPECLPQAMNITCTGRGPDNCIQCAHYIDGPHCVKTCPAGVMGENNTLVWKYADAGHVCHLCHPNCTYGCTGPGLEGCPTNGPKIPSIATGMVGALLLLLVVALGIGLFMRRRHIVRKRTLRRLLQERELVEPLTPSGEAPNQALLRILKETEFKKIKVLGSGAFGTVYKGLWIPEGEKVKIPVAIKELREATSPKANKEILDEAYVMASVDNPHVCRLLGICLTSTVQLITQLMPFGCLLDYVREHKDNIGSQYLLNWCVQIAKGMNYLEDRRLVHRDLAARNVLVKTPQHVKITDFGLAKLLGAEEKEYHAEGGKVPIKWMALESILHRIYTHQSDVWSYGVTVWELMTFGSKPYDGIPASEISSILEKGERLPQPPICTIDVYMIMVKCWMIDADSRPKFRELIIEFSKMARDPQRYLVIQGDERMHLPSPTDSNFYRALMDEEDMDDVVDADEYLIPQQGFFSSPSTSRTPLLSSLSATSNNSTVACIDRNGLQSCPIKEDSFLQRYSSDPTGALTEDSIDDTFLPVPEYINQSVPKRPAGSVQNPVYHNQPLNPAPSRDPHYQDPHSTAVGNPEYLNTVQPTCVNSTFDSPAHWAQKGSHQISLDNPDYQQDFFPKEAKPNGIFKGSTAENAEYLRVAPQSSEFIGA
Chain of Epidermal growth factor receptor (Homo sapiens, UniProt P00533, C797S/EX19DEL/T790M) (P00533 whole entry, looked up, stated change not applied): as the sequence (P00533 whole entry) above
Chain of Tyrosine-protein kinase BTK (Q06187 whole entry): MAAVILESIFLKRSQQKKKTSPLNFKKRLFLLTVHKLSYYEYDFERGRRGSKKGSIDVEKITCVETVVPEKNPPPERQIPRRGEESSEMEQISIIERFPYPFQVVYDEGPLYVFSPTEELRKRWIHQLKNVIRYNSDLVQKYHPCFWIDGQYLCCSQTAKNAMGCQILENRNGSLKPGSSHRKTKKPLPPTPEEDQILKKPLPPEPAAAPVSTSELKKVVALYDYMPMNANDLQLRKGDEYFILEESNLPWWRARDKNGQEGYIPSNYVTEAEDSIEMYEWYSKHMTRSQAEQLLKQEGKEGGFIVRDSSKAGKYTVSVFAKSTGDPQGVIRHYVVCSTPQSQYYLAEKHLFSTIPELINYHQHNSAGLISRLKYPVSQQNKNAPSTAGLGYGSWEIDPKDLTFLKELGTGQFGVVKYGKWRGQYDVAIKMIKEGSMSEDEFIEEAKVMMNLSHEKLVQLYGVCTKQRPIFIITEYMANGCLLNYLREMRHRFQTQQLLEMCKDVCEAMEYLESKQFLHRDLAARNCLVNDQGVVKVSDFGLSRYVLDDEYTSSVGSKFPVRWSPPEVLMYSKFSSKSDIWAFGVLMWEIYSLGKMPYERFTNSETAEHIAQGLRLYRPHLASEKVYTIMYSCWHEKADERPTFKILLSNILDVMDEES

Turning to `CCS(=O)(=O)n1cc2c3cc(ccc31)OCCCCCCCCOc1cc(ccc1N1CCOCC1)Nc1ncc(Cl)c-2n1`, in [1], the pIC50 – broadly, the IC50 on a negative log10 scale, so that one unit is a factor of ten – is 7.05.
Take `CCS(=O)(=O)n1cc2c3ccc(cc31)OCCCCCOc1cc(ccc1N1CCOCC1)Nc1ncc(Cl)c-2n1`: in data set [1], the pIC50 was 6.85.
Turning to `COc1cc(N2CCC(N3CCN(C)CC3)CC2)ccc1Nc1ncc(Cl)c(-c2cn(S(=O)(=O)C(C)C)c3ccccc23)n1`, the negative-log IC50 (pIC50) in data set [2] is 6.65; in [1] it was 7.48.
Regarding `COCC1CN(C2CCN(c3cc(OC)c(Nc4ncc(Br)c(Nc5ccc6nccnc6c5P(C)(C)=O)n4)cc3C)CC2)C1`, the negative logarithm of the IC50 (pIC50) is 9.15 in data set [1] and 7.82 with BaF3.
Turning to `CCS(=O)(=O)n1cc2c3ccc(cc31)OCCCCCCOc1cc(c(C3CC3)cc1N1CCOCC1)Nc1ncc(Cl)c-2n1`, the pIC50 in data set [1] was 7.25.
For `COc1cc(N2CCC(N3CC(N(C)C)C3)CC2)c(C)cc1Nc1ncc(Br)c(Nc2ccc3nccnc3c2P(C)(C)=O)n1`, in the data set with BaF3, the pIC50 is 7.90.
For `CCS(=O)(=O)n1cc2c3cc(ccc31)OCCCCCOc1cc(ccc1N1CCOCC1)Nc1ncc(Cl)c-2n1`, the pIC50 in data set [1] is 7.72.
Consider `CCS(=O)(=O)n1cc2c3ccc(cc31)OCCCCCCOc1cc(c(Cl)cc1N1CCOCC1)Nc1ncc(Cl)c-2n1`, for which the pIC50 in [1] is 8.21.
As for `CCS(=O)(=O)n1cc2c3cc(ccc31)OCCCCCCOc1cc(ccc1N1CCOCC1)Nc1ncc(Cl)c-2n1`, the pIC50 in data set [1] is 8.21.
For `COc1cc(N2CCC(N3CC(C(C)(C)O)C3)CC2)c(C)cc1Nc1ncc(Br)c(Nc2ccc3nccnc3c2P(C)(C)=O)n1`, in the data set on BaF3, the pIC50 is 7.74.
Consider `CCOC1CN(C2CCN(c3cc(OC)c(Nc4ncc(Br)c(Nc5ccc6c(c5P(C)(C)=O)OCCO6)n4)cc3C)CC2)C1`, for which the negative logarithm of the IC50 (pIC50) in the data set on BaF3 is 7.85.
For `COc1cc(N2CCC(N(C)C)CC2)c(-c2cnn(C)c2)cc1Nc1ncc(Cl)c(Nc2ccccc2P(C)(C)=O)n1`, the pIC50 in [1] is 9.72.
On to `COc1cc(N2CCC(N)CC2)ccc1Nc1ncc(C(=O)OC(C)C)c(-c2cn(C)c3ccccc23)n1`, for which the pIC50 in the data set with BaF3 was 6.45.
Consider `COc1cc(N2CCC(N3CC(CO)C3)CC2)c(C)cc1Nc1ncc(Br)c(Nc2ccc3nccnc3c2P(C)(C)=O)n1`, for which the pIC50 with BaF3 is 7.39.
With `C=CC(=O)Nc1ccc(OC)c(Nc2cc(-c3[nH]c(CCCO)nc3-c3ccc(F)cc3)ccn2)c1`, in [3], the negative-log IC50 (pIC50) is 8.10.
The compound `COc1cc(N2CCC(N(C)C)CC2)c(-c2cn[nH]c2)cc1Nc1ncc(Cl)c(Nc2ccccc2P(C)(C)=O)n1` had a pIC50 in data set [2] of 9.30.
In the case of `COc1cc(N2CCN(C)CC2)c(-c2cn[nH]c2)cc1Nc1ncc(Cl)c(Nc2ccccc2P(C)(C)=O)n1`, the negative logarithm of the IC50 (pIC50) in [1] is 9.64.
In the case of `C=CC(=O)Nc1cc(Nc2ncc(C(=O)OC(C)C)c(-c3cn(C)c4ccccc34)n2)c(OC)cc1N(C)CCN(C)C` [MOBOCERTINIB], the negative logarithm of the IC50 (pIC50) in the data set with BaF3 is 6.57.
Turning to `CNC(=O)c1cnc(Nc2ccnc(N3CCC(O)CC3)n2)cc1NC(C)C`, in data set [4], the pIC50 is 7.34.
In the case of `CN1CCCN(c2ccc(Nc3ncc(Br)c(Nc4ccccc4NS(=O)(=O)C4CC4)n3)cc2)CC1`, the negative logarithm of the IC50 (pIC50) in data set [3] was 9.21; in the data set on BaF3, 8.25.
As for `COc1cc(N2CCC(N3CCN(C)CC3)CC2)c(-c2cnn(C)c2)cc1Nc1ncc(Cl)c(Nc2ccccc2P(C)(C)=O)n1`, the pIC50 in [1] is 9.49.
As for `CCS(=O)(=O)n1cc2c3cc(ccc31)OCCCCCCCOc1cc(ccc1N1CCOCC1)Nc1ncc(Cl)c-2n1`, the pIC50 in [1] is 7.72.
As to `COc1cc(N2CCOCC2)c(-c2cnn(C)c2)cc1Nc1ncc(Cl)c(Nc2ccccc2P(C)(C)=O)n1`, the figures for the negative logarithm of the IC50 (pIC50) in [1], in [5] and in data set [6] were 9.70, 8.36 and 9.91, respectively.
Take `Cc1cc(Nc2ncc(Cl)c(Nc3ccccc3P(C)(C)=O)n2)ccc1N1CCC(N2CCN(C)CC2)CC1`: the negative-log IC50 (pIC50) in [2] is 9.22.
In [7], `CN(C)C1CCN(c2ccc(Nc3ncc(Br)c(Nc4ccccc4NS(=O)(=O)C4CC4)n3)cc2NS(C)(=O)=O)CC1` gave a pIC50 of 6.11.
On to `CCS(=O)(=O)n1cc2c3ccc(cc31)OCCCCCCOc1cc(ccc1N1CCOCC1)Nc1ncc(Cl)c-2n1`, for which the pIC50 in data set [1] was 7.24.
The same measure, in the same setting: the figure for `CCS(=O)(=O)n1cc2c3cc(ccc31)OCCCCOc1cc(ccc1N1CCOCC1)Nc1ncc(Cl)c-2n1` is less than 6.00.
`COc1cc(N2CCC(N3CC(C)(CO)C3)CC2)c(C)cc1Nc1ncc(Br)c(Nc2ccc3nccnc3c2P(C)(C)=O)n1`: the pIC50 in the data set with BaF3 is 7.75.
`CCS(=O)(=O)n1cc(-c2nc(Nc3cc(Cl)c(N4CCC(N5CCN(C)CC5)CC4)cc3OC)ncc2Cl)c2ccccc21`: the results for the negative-log IC50 (pIC50) in data set [2] and in [1] were 6.84 and 7.62, respectively.
As to `COc1cc(N2CCN(C)CC2)ccc1Nc1ncc(C(=O)OC(C)C)c(-c2cn(C)c3ccccc23)n1`, the pIC50 in the data set on BaF3 is 6.21.
As to `COc1cc(N2CCC(N(C)C)CC2)ccc1Nc1ncc(C(=O)Oc2ccccc2)c(-c2c[nH]c3ccccc23)n1`, the negative logarithm of the IC50 (pIC50) is 11.00 in [3] and 8.15 with BaF3.
For the compound `CC(C)c1cnc(N2CC(CS(C)(=O)=O)C2)c2cnc(Nc3ccnc(N4CCC(O)C(C)(F)C4)n3)cc12` (stereo not given), the pIC50 in the data set on A549 is 5.28.
For `CCP(=O)(CC)c1ccccc1Nc1nc(Nc2cc(-c3cnn(C)c3)c(N3CCOCC3)cc2OC)ncc1Cl`, the pIC50 in data set [1] was 9.70.
Regarding `COCC1(C)CN(C2CCN(c3cc(OC)c(Nc4ncc(Br)c(Nc5ccc6nccnc6c5P(C)(C)=O)n4)cc3C)CC2)C1`, the pIC50 with BaF3 is 7.65.
Take `CNc1ncc(C(C)C)c2cc(Nc3ccnc(N4CCC(O)C(F)C4)n3)ncc12` (stereo not given): the negative logarithm of the IC50 (pIC50) in [4] is 7.92.
With `Cc1cc(Nc2ncc(Cl)c(Nc3ccccc3NS(=O)(=O)C3CC3)n2)ccc1N1CCC(N(C)C)CC1`, the values for the pIC50 in data set [3] and in data set [2] were 8.32 and 10.52, respectively.
In the case of `CCc1cc(Nc2ncc(Br)c(Nc3ccc4c(c3P(C)(C)=O)OCO4)n2)c(OC)cc1N1CCC(N2CC(N(C)C)C2)CC1`, the pIC50 is 9.40 in [2], 9.82 in data set [1] and 7.40 with BaF3.
In turn, `Cc1cc(Nc2ncc(Br)c(Nc3ccccc3NS(=O)(=O)C3CC3)n2)ccc1N1CCCN(C)CC1` showed a pIC50 in data set [3] of 7.15.
With `C=CC(=O)Nc1ccc(OC)c(Nc2cc(-c3[nH]c(SCCOC)nc3-c3ccc(F)cc3)ccn2)c1`, in data set [2], the negative logarithm of the IC50 (pIC50) was 7.46.
In the case of `CC(C)c1cnc(N2CCC2)c2cnc(Nc3ccnc(N4CCC(O)C(C)(F)C4)n3)cc12` (stereo not given), in [4], the pIC50 is 8.04.
`COc1cc(N2CCN(C)CC2)ccc1Nc1ncc(C(=O)Oc2ccccc2)c(-c2cn(C)c3ccccc23)n1`: the negative logarithm of the IC50 (pIC50) in [3] was 10.30; in the data set on BaF3, 7.03.
With `CCc1cc(Nc2ncc(Br)c(Nc3ccc4c(c3P(C)(C)=O)OCCO4)n2)c(OC)cc1N1CCC(N2CC(N(C)C)C2)CC1`, the negative-log IC50 (pIC50) in data set [1] is 10.10; in the data set with BaF3 it was 8.10.
For the compound `CCS(=O)(=O)n1cc2c3ccc(cc31)OCCCCCCOc1cc(c(C)cc1N1CCOCC1)Nc1ncc(Cl)c-2n1`, the negative logarithm of the IC50 (pIC50) in data set [1] was 7.63.
As to `CN1CCN(C2CCN(c3ccc(Nc4ncc(Cl)c(Nc5ccccc5P(C)(C)=O)n4)cc3Cl)CC2)CC1`, the negative logarithm of the IC50 (pIC50) in data set [2] was 9.15.
For the compound `COc1cc(N2CCC(N3CCN(C)CC3)CC2)ccc1Nc1ncc(Cl)c(-c2cn(S(=O)(=O)C3CC3)c3ccccc23)n1`, the results for the negative logarithm of the IC50 (pIC50) in data set [2] and in data set [1] were 8.37 and 7.59, respectively.
Regarding `OCCCc1nc(-c2ccc(F)cc2)c(-c2ccnc3[nH]c(-c4ccccc4)cc23)[nH]1`, the pIC50 in data set [3] was greater than 9.30.
As to `COCCCc1nc(-c2ccc(F)cc2)c(-c2ccnc3[nH]c(-c4ccccc4)cc23)[nH]1`, the pIC50 in data set [3] and in data set [2] was 8.22 in each case.
For the compound `COc1cc(N2CCN(C(C)=O)CC2)ccc1Nc1nccc(Nc2ccc(Nc3ccc(S(=O)(=O)F)cc3)cc2)n1`, the negative-log IC50 (pIC50) is 6.68 in data set [3] and 6.96 in data set [2].
Take `COc1cc(N2CCC(N3CC(CC#N)C3)CC2)c(C)cc1Nc1ncc(Br)c(Nc2ccc3nccnc3c2P(C)(C)=O)n1`: the pIC50 in the data set with BaF3 is 7.90.
As to `COc1cc(N2CCC(N3CC(F)(CO)C3)CC2)c(C)cc1Nc1ncc(Br)c(Nc2ccc3nccnc3c2P(C)(C)=O)n1`, the pIC50 with BaF3 is 7.73.
For `CCOC1CN(C2CCN(c3cc(OC)c(Nc4ncc(Br)c(Nc5ccc6nccnc6c5P(C)(C)=O)n4)cc3C)CC2)C1`, the pIC50 in the data set on BaF3 was 7.54.
In the case of `CC(C)c1ccc(N2CC(CS(C)(=O)=O)C2C)c2cnc(Nc3ccnc(N4CCC(O)C(C)(F)C4)n3)cc12` (stereo not given), the clearance – broadly, the volume of plasma or blood freed of the substance per unit of time – in [8] is 31.8 mL/min/kg.
As for `CC(C)c1cnc(N2CC(O)C2C)c2cnc(Nc3ccnc(N4CCC(O)C(C)(F)C4)n3)cc12` (stereo not given), the pIC50 in data set [4] was 7.70.
Turning to `COC1CCN(c2nccc(Nc3cc4c(C(C)C)ccc(N5CC(CS(C)(=O)=O)C5C)c4cn3)n2)CC1F` (stereo not given), in [6], the pIC50 is 8.96. This compound came in with a CLH in [9] of 89 µL/min/mg.

The values are drawn from ChEMBL document CHEMBL6087440, “Catalytic Lysine745 targeting strategy in fourth-generation EGFR tyrosine kinase inhibitors to address C797S mutation resistance” (Eur J Med Chem, 2025).
